In patent US6706663B2, “Herbicidal 3-heterocyclic substituted benzisothiazole and benzisoxazole compounds” (Wyeth, priority 2000, dated 2004):

What was measured:
[1] = system: ABUTH (Abutilon theophrasti); assay: Postemergence herbicidal evaluation; assay type: in vivo, Medic.; details: for ABUTH herbicidal rating: postemergence
Method in brief: (§1)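 Seedlings grown for about two weeks were sprayed postemergence and then kept under standard greenhouse care. Injury was rated visually 4–5 weeks after treatment on a 0–9 scale against untreated controls, and ratings from repeat tests were averaged.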

[2] = system: AMBEL (Ambrosia artemisifolia); assay: Postemergence herbicidal evaluation; assay type: in vivo, L.; details: for AMBEL herbicidal rating: postemergence
Method in brief: as §1

[3] = system: CASOB (Cassia obtusifolia); assay: Postemergence herbicidal evaluation; assay type: in vivo, L.; details: for CASOB herbicidal rating: postemergence
Method in brief: as §1

[4] = system: CHEAL (Chenopodium album); assay: Postemergence herbicidal evaluation; assay type: in vivo, L.; details: for CHEAL herbicidal rating: postemergence
Method in brief: as §1

GALAP (Galium aparine) [5] = assay: Postemergence herbicidal evaluation; assay type: in vivo; details: for GALAP herbicidal rating: postemergence
Method in brief: as §1

[6] = system: ECHCG (Echinochloa crus-galli); assay: Postemergence herbicidal evaluation; assay type: in vivo, (L.) Beau; details: for ECHCG herbicidal rating: postemergence
Method in brief: as §1

[7] = system: GLXMAW (Soybean, Williams); assay: Postemergence herbicidal evaluation; assay type: in vivo, Glycine max, (L.) Merr. cv Williams; details: for GLXMAW herbicidal rating: postemergence
Method in brief: as §1

ORYSAT (Rice, Tebonnet) [8] = assay: Postemergence herbicidal evaluation; assay type: in vivo, Oryza sativa, (L.) Tebonnet; details: for ORYSAT herbicidal rating: postemergence
Method in brief: as §1

ZEAMX (Corn, Field) = assay: Postemergence herbicidal evaluation; assay type: in vivo, Zea mays, L.; details: for ZEAMX herbicidal rating: postemergence
Method in brief: as §1

[9] = system: ABUTH (Abutilon theophrasti); assay: Preemergence herbicidal evaluation; assay type: in vivo, Medic.; details: rated 4-5 weeks after treatment
[10] = system: AMBEL (Ambrosia artemisifolia); assay: Preemergence herbicidal evaluation; assay type: in vivo, L.; details: rated 4-5 weeks after treatment
Method in brief: (§2)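 Greenhouse preemergence test: freshly planted cups were sprayed once with an aqueous acetone solution of compound. Injury was judged visually on a 0–9 scale relative to a control, four to five weeks later.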

[11] = system: CASOB (Cassia obtusifolia); assay: Preemergence herbicidal evaluation; assay type: in vivo, L.; details: rated 4-5 weeks after treatment
Method in brief: as §2

[12] = system: CHEAL (Chenopodium album); assay: Preemergence herbicidal evaluation; assay type: in vivo, L.; details: rated 4-5 weeks after treatment
Method in brief: as §2

GALAP (Galium aparine) [13] = assay: Preemergence herbicidal evaluation; assay type: in vivo; details: rated 4-5 weeks after treatment
Method in brief: as §2

[14] = system: IPOHE (Ipomoea hederacea); assay: Preemergence herbicidal evaluation; assay type: in vivo, (L.) Jacq.; details: rated 4-5 weeks after treatment
ORYSAT (Rice, Tebonnet) [15] = assay: Preemergence herbicidal evaluation; assay type: in vivo, Oryza sativa, (L.) Tebonnet; details: rated 4-5 weeks after treatment
[16] = system: TRZAWR (Wheat, Winter, cv Riband); assay: Preemergence herbicidal evaluation; assay type: in vivo, Triticum aestivum; details: rated 4-5 weeks after treatment
Method in brief: as §2

[17] = system: CYPSE (Cyperus serotinus); assay: Flooded paddy, preemergence weed control; assay type: in vivo, Rottb.; details: rated 3-4 weeks after treatment, 0-9 rating scale
Method in brief: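 Seeds or propagules were planted 0.5 cm deep in silt loam and flooded to 1.5–3 cm. Compounds in 50/50 v/v aqueous/acetone were pipetted into the flood water at about 0.0080 to 0.1250 kg/ha. After 3–4 weeks in the greenhouse, effect was rated visually on a 0–9 scale versus untreated control.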

[18] = system: SAGPY (Sagittaria pygmaea); assay: Flooded paddy, preemergence weed control; assay type: in vivo, L.; details: rate 0.0080 kg/ha, rated 3-4 weeks after treatment, 0-9 rating scale
Method in brief: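 Under paddy conditions, seeds or vegetative propagules go into the top 0.5 cm of silt loam; the soil is then flooded to 1.5–3 cm and kept so. Treated pots stay in a greenhouse; response is rated 0-9 visually versus control.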

1-methyl-3-[3-(1,3-oxathian-2-yl)-1,2-benzisothiazol-5-yl]-6-(trifluoromethyl)uracil S′,S′-dioxide [Compound 35]
ABUTH herbicidal rating ([1]; rate 0.0320 kg/ha): 9.0 | ABUTH herbicidal rating ([1]; rate 0.0620 kg/ha): 9.0 | Postemergence herbicidal rating, ABUTH ([1]; rate 0.0320 kg/ha): 9.0 | Postemergence herbicidal rating, ABUTH ([1]; rate 0.0620 kg/ha): 9.0 | AMBEL herbicidal rating ([2]; rate 0.0320 kg/ha): 4.0 | AMBEL herbicidal rating ([2]; rate 0.0620 kg/ha): 9.0 | Postemergence herbicidal rating, AMBEL ([2]; rate 0.0320 kg/ha): 9.0 | Postemergence herbicidal rating, AMBEL ([2]; rate 0.0620 kg/ha): 9.0 | CASOB herbicidal rating ([3]; rate 0.0320 kg/ha): 4.0 | CASOB herbicidal rating ([3]; rate 0.0620 kg/ha): 4.0 | Postemergence herbicidal rating, CASOB ([3]; rate 0.0320 kg/ha): 9.0 | Postemergence herbicidal rating, CASOB ([3]; rate 0.0620 kg/ha): 9.0 | CHEAL herbicidal rating ([4]; rate 0.0320 kg/ha): 7.0 | CHEAL herbicidal rating ([4]; rate 0.0620 kg/ha): 9.0 | Postemergence herbicidal rating, CHEAL ([4]; rate 0.0320 kg/ha): 9.0 | Postemergence herbicidal rating, CHEAL ([4]; rate 0.0620 kg/ha): 9.0 | GALAP herbicidal rating (GALAP (Galium aparine) [5]; rate 0.0320 kg/ha): 2.0 | GALAP herbicidal rating (GALAP (Galium aparine) [5]; rate 0.0620 kg/ha): 4.0 | Postemergence herbicidal rating, GALAP (GALAP (Galium aparine) [5]; rate 0.0320 kg/ha): 3.0 | Postemergence herbicidal rating, GALAP (GALAP (Galium aparine) [5]; rate 0.0620 kg/ha): 4.0 | ECHCG herbicidal rating ([6]; rate 0.0320 kg/ha): 2.0 | ECHCG herbicidal rating ([6]; rate 0.0620 kg/ha): 3.0 | Postemergence herbicidal rating, ECHCG ([6]; rate 0.0320 kg/ha): 3.0 | Postemergence herbicidal rating, ECHCG ([6]; rate 0.0620 kg/ha): 4.0 | GLXMAW herbicidal rating ([7]; rate 0.0320 kg/ha): 4.0 | GLXMAW herbicidal rating ([7]; rate 0.0620 kg/ha): 5.5 | Postemergence herbicidal rating, GLXMAW ([7]; rate 0.0320 kg/ha): 9.0 | Postemergence herbicidal rating, GLXMAW ([7]; rate 0.0620 kg/ha): 9.0 | ORYSAT herbicidal rating (ORYSAT (Rice, Tebonnet) [8]; rate 0.0320 kg/ha): 1.5 | ORYSAT herbicidal rating (ORYSAT (Rice, Tebonnet) [8]; rate 0.0620 kg/ha): 2.5 | Postemergence herbicidal rating, ORYSAT (ORYSAT (Rice, Tebonnet) [8]; rate 0.0320 kg/ha): 6.5 | Postemergence herbicidal rating, ORYSAT (ORYSAT (Rice, Tebonnet) [8]; rate 0.0620 kg/ha): 6.5 | ZEAMX herbicidal rating (ZEAMX (Corn, Field); rate 0.0320 kg/ha): 3.0 | ZEAMX herbicidal rating (ZEAMX (Corn, Field); rate 0.0620 kg/ha): 3.0 | Postemergence herbicidal rating, ZEAMX (ZEAMX (Corn, Field); rate 0.0320 kg/ha): 7.5 | Postemergence herbicidal rating, ZEAMX (ZEAMX (Corn, Field); rate 0.0620 kg/ha): 7.5 | ABUTH preemergence herbicidal rating ([9]; Rate 0.0620 kg/ha): 9.0 | Preemergence herbicidal rating ABUTH ([9]; Rate 0.0620 kg/ha): 4.5 | ABUTH preemergence herbicidal rating ([9]; Rate 0.1250 kg/ha): 9.0 | Preemergence herbicidal rating ABUTH ([9]; Rate 0.1250 kg/ha): 9.0 | ABUTH preemergence herbicidal rating ([9]; Rate 0.2500 kg/ha): 9.0 | Preemergence herbicidal rating ABUTH ([9]; Rate 0.2500 kg/ha): 9.0 | AMBEL preemergence herbicidal rating ([10]; Rate 0.0620 kg/ha): 9.0 | Preemergence herbicidal rating AMBEL ([10]; Rate 0.0620 kg/ha): 3.5 | AMBEL preemergence herbicidal rating ([10]; Rate 0.1250 kg/ha): 9.0 | Preemergence herbicidal rating AMBEL ([10]; Rate 0.1250 kg/ha): 5.5 | AMBEL preemergence herbicidal rating ([10]; Rate 0.2500 kg/ha): 9.0 | Preemergence herbicidal rating AMBEL ([10]; Rate 0.2500 kg/ha): 6.5 | CASOB preemergence herbicidal rating ([11]; Rate 0.0620 kg/ha): 7.0 | Preemergence herbicidal rating CASOB ([11]; Rate 0.0620 kg/ha): 0.0 | CASOB preemergence herbicidal rating ([11]; Rate 0.1250 kg/ha): 7.0 | Preemergence herbicidal rating CASOB ([11]; Rate 0.1250 kg/ha): 1.5 | CASOB preemergence herbicidal rating ([11]; Rate 0.2500 kg/ha): 9.0 | Preemergence herbicidal rating CASOB ([11]; Rate 0.2500 kg/ha): 2.0 | CHEAL preemergence herbicidal rating ([12]; Rate 0.0620 kg/ha): 9.0 | Preemergence herbicidal rating CHEAL ([12]; Rate 0.0620 kg/ha): 9.0 | CHEAL preemergence herbicidal rating ([12]; Rate 0.1250 kg/ha): 9.0 | Preemergence herbicidal rating CHEAL ([12]; Rate 0.1250 kg/ha): 9.0 | CHEAL preemergence herbicidal rating ([12]; Rate 0.2500 kg/ha): 9.0 | Preemergence herbicidal rating CHEAL ([12]; Rate 0.2500 kg/ha): 9.0 | GALAP preemergence herbicidal rating (GALAP (Galium aparine) [13]; Rate 0.0620 kg/ha): 9.0 | Preemergence herbicidal rating GALAP (GALAP (Galium aparine) [13]; Rate 0.0620 kg/ha): 7.0 | GALAP preemergence herbicidal rating (GALAP (Galium aparine) [13]; Rate 0.1250 kg/ha): 9.0 | Preemergence herbicidal rating GALAP (GALAP (Galium aparine) [13]; Rate 0.1250 kg/ha): 9.0 | GALAP preemergence herbicidal rating (GALAP (Galium aparine) [13]; Rate 0.2500 kg/ha): 9.0 | Preemergence herbicidal rating GALAP (GALAP (Galium aparine) [13]; Rate 0.2500 kg/ha): 9.0 | IPOHE preemergence herbicidal rating ([14]; Rate 0.0620 kg/ha): 9.0 | Preemergence herbicidal rating IPOHE ([14]; Rate 0.0620 kg/ha): 0.5 | IPOHE preemergence herbicidal rating ([14]; Rate 0.1250 kg/ha): 9.0 | Preemergence herbicidal rating IPOHE ([14]; Rate 0.1250 kg/ha): 3.0 | IPOHE preemergence herbicidal rating ([14]; Rate 0.2500 kg/ha): 9.0 | Preemergence herbicidal rating IPOHE ([14]; Rate 0.2500 kg/ha): 7.0 | ORYSAT preemergence herbicidal rating (ORYSAT (Rice, Tebonnet) [15]; Rate 0.0620 kg/ha): 5.5 | Preemergence herbicidal rating ORYSAT (ORYSAT (Rice, Tebonnet) [15]; Rate 0.0620 kg/ha): 0.0 | ORYSAT preemergence herbicidal rating (ORYSAT (Rice, Tebonnet) [15]; Rate 0.1250 kg/ha): 9.0 | Preemergence herbicidal rating ORYSAT (ORYSAT (Rice, Tebonnet) [15]; Rate 0.1250 kg/ha): 0.0 | ORYSAT preemergence herbicidal rating (ORYSAT (Rice, Tebonnet) [15]; Rate 0.2500 kg/ha): 9.0 | Preemergence herbicidal rating ORYSAT (ORYSAT (Rice, Tebonnet) [15]; Rate 0.2500 kg/ha): 0.0 | TRZAWR preemergence herbicidal rating ([16]; Rate 0.0620 kg/ha): 7.0 | Preemergence herbicidal rating TRZAWR ([16]; Rate 0.0620 kg/ha): 0.0 | TRZAWR preemergence herbicidal rating ([16]; Rate 0.1250 kg/ha): 9.0 | Preemergence herbicidal rating TRZAWR ([16]; Rate 0.1250 kg/ha): 0.0 | TRZAWR preemergence herbicidal rating ([16]; Rate 0.2500 kg/ha): 9.0 | Preemergence herbicidal rating TRZAWR ([16]; Rate 0.2500 kg/ha): 0.0 | herbicidal rating, CYPSE ([17]; rate 0.0320 kg/ha): 2.0 | herbicidal rating, CYPSE ([17]; rate 0.0320 kg/ha, listed as 82): 9.0 | herbicidal rating, CYPSE ([17]; rate 0.1250 kg/ha): 5.0 | herbicidal rating, CYPSE ([17]; rate 0.1250 kg/ha, listed as 82): 9.0 | herbicidal rating, SAGPY [18]: 0.0
